In paper PMC3914206:

Key:
Format in all cases: binding
Conditions in all cases: Compound Concentration 10 µM
[1] = molecular target: T1, panel of 442 kinases (Homo sapiens, UniProt Q9UIK4)
T1 construct: purchased KINOMEscan
Excerpt: (§1) We assessed the selectivity of members of this scaffold using the KINOMEscan methodology across a near comprehensive panel of 442 kinases [[18,27]].

[2] = molecular target: T2, panel of 442 kinases (Homo sapiens, UniProt O75460)
T2 construct: purchased KINOMEscan
T2 sequence (O75460 19-977): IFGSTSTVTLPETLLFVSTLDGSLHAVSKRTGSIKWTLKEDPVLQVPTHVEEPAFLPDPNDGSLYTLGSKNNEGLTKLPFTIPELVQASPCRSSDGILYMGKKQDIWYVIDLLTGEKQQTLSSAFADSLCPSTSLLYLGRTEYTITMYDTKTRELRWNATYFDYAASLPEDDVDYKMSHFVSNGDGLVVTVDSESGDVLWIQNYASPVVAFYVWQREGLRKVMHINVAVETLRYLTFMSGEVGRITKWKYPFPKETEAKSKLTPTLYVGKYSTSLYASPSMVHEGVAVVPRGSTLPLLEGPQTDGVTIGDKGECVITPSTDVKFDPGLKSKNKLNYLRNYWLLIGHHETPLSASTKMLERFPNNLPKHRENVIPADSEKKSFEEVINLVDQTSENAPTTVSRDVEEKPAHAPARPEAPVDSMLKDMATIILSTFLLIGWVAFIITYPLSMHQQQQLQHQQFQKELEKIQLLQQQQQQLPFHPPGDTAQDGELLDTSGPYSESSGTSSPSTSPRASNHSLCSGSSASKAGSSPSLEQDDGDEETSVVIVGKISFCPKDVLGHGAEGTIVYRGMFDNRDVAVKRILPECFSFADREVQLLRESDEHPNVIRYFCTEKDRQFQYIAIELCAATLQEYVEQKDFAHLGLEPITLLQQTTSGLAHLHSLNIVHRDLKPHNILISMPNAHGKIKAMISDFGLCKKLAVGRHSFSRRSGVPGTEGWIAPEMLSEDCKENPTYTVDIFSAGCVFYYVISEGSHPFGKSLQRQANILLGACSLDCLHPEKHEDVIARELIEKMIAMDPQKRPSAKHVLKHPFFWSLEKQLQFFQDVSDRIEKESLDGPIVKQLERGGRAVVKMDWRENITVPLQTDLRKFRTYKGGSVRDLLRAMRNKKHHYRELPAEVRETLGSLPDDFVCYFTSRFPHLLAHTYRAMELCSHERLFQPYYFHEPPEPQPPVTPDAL
Excerpt: as §1

[3] = molecular target: T3, panel of 442 kinases (Homo sapiens, UniProt Q13464)
T3 construct: purchased KINOMEscan
T3 sequence (Q13464 whole entry): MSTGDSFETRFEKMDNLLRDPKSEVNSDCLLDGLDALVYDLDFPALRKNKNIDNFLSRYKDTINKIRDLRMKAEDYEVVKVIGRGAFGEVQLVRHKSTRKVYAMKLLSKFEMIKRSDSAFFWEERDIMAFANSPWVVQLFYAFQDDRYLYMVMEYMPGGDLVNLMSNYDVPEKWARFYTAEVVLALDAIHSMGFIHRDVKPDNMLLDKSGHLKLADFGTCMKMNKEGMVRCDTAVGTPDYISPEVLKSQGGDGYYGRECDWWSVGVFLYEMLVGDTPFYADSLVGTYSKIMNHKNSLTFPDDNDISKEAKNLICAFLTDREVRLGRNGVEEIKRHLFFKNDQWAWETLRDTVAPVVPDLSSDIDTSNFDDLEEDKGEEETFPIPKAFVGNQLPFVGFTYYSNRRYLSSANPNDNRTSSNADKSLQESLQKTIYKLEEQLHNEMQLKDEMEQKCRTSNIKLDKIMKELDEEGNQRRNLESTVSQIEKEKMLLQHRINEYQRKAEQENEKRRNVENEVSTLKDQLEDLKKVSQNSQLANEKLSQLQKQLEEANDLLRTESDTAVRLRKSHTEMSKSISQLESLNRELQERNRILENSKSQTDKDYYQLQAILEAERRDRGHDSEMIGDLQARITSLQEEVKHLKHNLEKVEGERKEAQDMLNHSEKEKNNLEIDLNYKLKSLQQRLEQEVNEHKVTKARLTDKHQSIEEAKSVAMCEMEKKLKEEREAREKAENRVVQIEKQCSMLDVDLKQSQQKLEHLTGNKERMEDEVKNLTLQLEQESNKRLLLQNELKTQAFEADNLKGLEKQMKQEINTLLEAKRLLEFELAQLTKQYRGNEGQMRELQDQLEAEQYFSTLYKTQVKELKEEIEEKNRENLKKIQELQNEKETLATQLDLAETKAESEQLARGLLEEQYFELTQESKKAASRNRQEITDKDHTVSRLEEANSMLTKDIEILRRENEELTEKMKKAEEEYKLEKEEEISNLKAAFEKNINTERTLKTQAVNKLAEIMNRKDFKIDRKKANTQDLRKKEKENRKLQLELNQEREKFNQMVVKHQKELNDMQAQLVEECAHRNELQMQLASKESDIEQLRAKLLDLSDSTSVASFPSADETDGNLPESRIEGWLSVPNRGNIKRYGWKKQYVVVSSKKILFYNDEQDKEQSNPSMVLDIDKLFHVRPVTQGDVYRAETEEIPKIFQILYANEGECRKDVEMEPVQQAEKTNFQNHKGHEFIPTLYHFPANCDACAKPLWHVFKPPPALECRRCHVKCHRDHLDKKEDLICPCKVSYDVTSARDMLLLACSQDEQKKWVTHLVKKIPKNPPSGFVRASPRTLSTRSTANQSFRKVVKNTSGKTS
Excerpt: as §1

[4] = molecular target: T4, panel of 442 kinases (Homo sapiens, UniProt O00750)
T4 construct: purchased KINOMEscan
T4 sequence (O00750 whole entry): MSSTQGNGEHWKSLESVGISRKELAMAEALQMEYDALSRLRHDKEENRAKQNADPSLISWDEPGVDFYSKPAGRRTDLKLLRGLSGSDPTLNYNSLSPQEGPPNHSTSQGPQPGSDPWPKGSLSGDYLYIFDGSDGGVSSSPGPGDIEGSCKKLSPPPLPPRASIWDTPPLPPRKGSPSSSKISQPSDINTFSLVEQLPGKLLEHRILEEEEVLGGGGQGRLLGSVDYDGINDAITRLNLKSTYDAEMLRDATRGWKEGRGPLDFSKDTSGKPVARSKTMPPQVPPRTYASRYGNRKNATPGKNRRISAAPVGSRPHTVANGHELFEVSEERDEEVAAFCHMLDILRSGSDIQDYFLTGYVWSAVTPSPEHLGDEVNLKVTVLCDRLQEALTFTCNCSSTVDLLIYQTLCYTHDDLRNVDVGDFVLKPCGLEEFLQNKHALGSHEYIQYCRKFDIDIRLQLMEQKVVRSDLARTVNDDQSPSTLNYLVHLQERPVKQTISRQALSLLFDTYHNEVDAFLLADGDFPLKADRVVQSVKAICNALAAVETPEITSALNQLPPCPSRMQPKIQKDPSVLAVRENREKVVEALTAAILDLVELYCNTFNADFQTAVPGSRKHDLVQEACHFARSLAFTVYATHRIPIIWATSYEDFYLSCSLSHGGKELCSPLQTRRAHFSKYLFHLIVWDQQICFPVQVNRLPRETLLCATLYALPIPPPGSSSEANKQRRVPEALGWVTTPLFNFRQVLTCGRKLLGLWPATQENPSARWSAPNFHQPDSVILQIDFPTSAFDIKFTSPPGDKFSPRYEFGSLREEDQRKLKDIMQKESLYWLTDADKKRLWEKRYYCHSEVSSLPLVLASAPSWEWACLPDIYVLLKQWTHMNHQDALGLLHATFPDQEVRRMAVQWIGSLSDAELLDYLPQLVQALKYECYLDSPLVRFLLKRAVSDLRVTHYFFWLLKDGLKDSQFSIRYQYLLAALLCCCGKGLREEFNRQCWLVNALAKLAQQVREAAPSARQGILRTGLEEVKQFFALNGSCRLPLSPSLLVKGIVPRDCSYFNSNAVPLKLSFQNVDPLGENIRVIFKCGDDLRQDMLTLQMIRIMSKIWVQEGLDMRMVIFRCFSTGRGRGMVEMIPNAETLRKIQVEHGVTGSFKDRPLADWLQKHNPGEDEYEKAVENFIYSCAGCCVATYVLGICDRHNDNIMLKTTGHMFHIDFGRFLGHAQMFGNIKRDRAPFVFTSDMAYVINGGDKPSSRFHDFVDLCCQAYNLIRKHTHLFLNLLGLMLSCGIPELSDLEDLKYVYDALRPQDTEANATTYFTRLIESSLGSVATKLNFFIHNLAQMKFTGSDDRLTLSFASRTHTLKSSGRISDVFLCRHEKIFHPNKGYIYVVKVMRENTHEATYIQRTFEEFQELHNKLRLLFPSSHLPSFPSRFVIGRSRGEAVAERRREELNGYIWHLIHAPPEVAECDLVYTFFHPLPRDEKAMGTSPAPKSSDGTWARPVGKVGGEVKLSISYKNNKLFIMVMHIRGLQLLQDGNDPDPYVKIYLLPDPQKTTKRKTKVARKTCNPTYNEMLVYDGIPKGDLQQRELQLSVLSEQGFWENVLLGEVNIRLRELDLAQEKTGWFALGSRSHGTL
Excerpt: as §1

T1 sequence (Q9UIK4 whole entry): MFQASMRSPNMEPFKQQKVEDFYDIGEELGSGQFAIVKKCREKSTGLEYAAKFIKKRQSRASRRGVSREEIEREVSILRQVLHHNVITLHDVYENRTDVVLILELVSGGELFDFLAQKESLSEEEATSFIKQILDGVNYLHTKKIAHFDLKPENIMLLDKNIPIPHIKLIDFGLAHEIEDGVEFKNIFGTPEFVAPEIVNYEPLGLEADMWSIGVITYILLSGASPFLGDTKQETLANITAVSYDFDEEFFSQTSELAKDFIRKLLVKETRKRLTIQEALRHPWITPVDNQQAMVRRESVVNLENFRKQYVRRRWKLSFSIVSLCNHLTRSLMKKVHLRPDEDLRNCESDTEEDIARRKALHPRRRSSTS

| Structure (SMILES) | KINOMEscan: DAPK2 [1] | KINOMEscan: ERN1 [2] | KINOMEscan: ROCK1 [3] | KINOMEscan: PIK3C2B [4] |
| --- | --- | --- | --- | --- |
| COc1cc(C(=O)N2CCC(N3CCN(C)CC3)CC2)ccc1Nc1ncc2c(n1)N(C)c1ccccc1C(=O)N2C [15 (LRRK2-IN-1)] | 67 | 59 | 100 | 100 |
| COc1cc(C(=O)N2CCC(N3CCN(C)CC3)CC2)ccc1Nc1ncc2c(n1)N1CCc3cccc(c31)C(=O)N2C [Compound 24] | 22 |  | 64 |  |
| COc1cc(C(=O)N2CCC(N3CCN(C)CC3)CC2)ccc1Nc1ncc2c(n1)N(C1CCCC1)c1ccccc1C(=O)N2C [Compound 25, 11-cyclopentyl-2-((2-methoxy-4-(4-(4-methylpiperazin-1-yl)piperidine-1-carbonyl)phenyl)amino)-5-methyl-5H-benzo[e]pyrimido[5,4-b][1,4]diazepin-6(11H)-one] | 90 | 96 | 74 | 100 |
| CCOc1cc(C(=O)N2CCC(N3CCN(C)CC3)CC2)ccc1Nc1ncc2c(n1)N(C1CCCC1)c1ccccc1C(=O)N2C [Compound 26] | 99 | 87 | 77 | 100 |
